Values after ≈ are worked out from the molar mass of the structure shown.
System: Escherichia coli
Assay: Antibacterial activity against Escherichia coli K-12 W3110 by microdilution method
Assay type: functional
Conditions: K-12 substr. W3110

MIC | Structure (SMILES)
> 80 µM | Cc1cn([C@H]2CN(P(=O)(OC[C@@H]3CN(P(=O)(OC[C@@H]4CN(P(=O)(OC[C@@H]5CN(P(=O)(OC[C@@H]6CN(P(=O)(OC[C@@H]7CN(P(=O)(OC[C@@H]8CN(P(=O)(OC[C@@H]9CN(P(=O)(OC[C@@H]%10CNC[C@H](n%11cnc%12c(=O)[nH]c(N)nc%12%11)O%10)N(C)C)C[C@H](n%10cc(C)c(=O)[nH]c%10=O)O9)N(C)C)C[C@H](n9cnc%10c(=O)[nH]c(N)nc%109)O8)N(C)C)C[C@H](n8cnc9c(N)ncnc98)O7)N(C)C)C[C@H](n7cc(C)c(=O)[nH]c7=O)O6)N(C)C)C[C@H](n6cnc7c(N)ncnc76)O5)N(C)C)C[C@H](n5cnc6c(=O)[nH]c(N)nc65)O4)N(C)C)C[C@H](n4ccc(N)nc4=O)O3)N(C)C)C[C@@H](COP(=O)(N(C)C)N3C[C@@H](COP(=O)(N(C)C)N4C[C@@H](COP(=O)(N(C)C)N5CCN(C(=O)CCNC(=O)CCCCCNC(=O)[C@H](CCCNC(=N)N)NC(=O)CCNC(=O)CCNC(=O)[C@H](CCCNC(=N)N)NC(=O)CCNC(=O)CCNC(=O)[C@H](CCCNC(=N)N)NC(=O)CCNC(=O)CCNC(=O)[C@@H](N)CCCNC(=N)N)CC5)O[C@@H](n5ccc(N)nc5=O)C4)O[C@@H](n4cc(C)c(=O)[nH]c4=O)C3)O2)c(=O)[nH]c1=O (stereo partly drawn)
80 µM (≈ 394 µg/mL) | Cc1cn([C@H]2CN(P(=O)(OC[C@@H]3CN(P(=O)(OC[C@@H]4CN(P(=O)(OC[C@@H]5CN(P(=O)(OC[C@@H]6CN(P(=O)(OC[C@@H]7CN(P(=O)(OC[C@@H]8CN(P(=O)(OC[C@@H]9CN(P(=O)(OC[C@@H]%10CNC[C@H](n%11cnc%12c(=O)[nH]c(N)nc%12%11)O%10)N(C)C)C[C@H](n%10cc(C)c(=O)[nH]c%10=O)O9)N(C)C)C[C@H](n9cnc%10c(=O)[nH]c(N)nc%109)O8)N(C)C)C[C@H](n8cnc9c(N)ncnc98)O7)N(C)C)C[C@H](n7cc(C)c(=O)[nH]c7=O)O6)N(C)C)C[C@H](n6cnc7c(N)ncnc76)O5)N(C)C)C[C@H](n5cnc6c(=O)[nH]c(N)nc65)O4)N(C)C)C[C@H](n4ccc(N)nc4=O)O3)N(C)C)C[C@@H](COP(=O)(N(C)C)N3C[C@@H](COP(=O)(N(C)C)N4C[C@@H](COP(=O)(N(C)C)N5CCN(C(=O)CCNC(=O)CCCCCNC(=O)[C@H](CCCNC(=N)N)NC(=O)CCCCCNC(=O)[C@H](CCCNC(=N)N)NC(=O)CCCCCNC(=O)[C@H](CCCNC(=N)N)NC(=O)CCCCCNC(=O)[C@@H](N)CCCNC(=N)N)CC5)O[C@@H](n5ccc(N)nc5=O)C4)O[C@@H](n4cc(C)c(=O)[nH]c4=O)C3)O2)c(=O)[nH]c1=O (stereo partly drawn)
> 80 µM | Cc1cn([C@H]2CN(P(=O)(OC[C@@H]3CN(P(=O)(OC[C@@H]4CN(P(=O)(OC[C@@H]5CN(P(=O)(OC[C@@H]6CN(P(=O)(OC[C@@H]7CN(P(=O)(OC[C@@H]8CN(P(=O)(OC[C@@H]9CN(P(=O)(OC[C@@H]%10CNC[C@H](n%11cnc%12c(=O)[nH]c(N)nc%12%11)O%10)N(C)C)C[C@H](n%10cc(C)c(=O)[nH]c%10=O)O9)N(C)C)C[C@H](n9cnc%10c(=O)[nH]c(N)nc%109)O8)N(C)C)C[C@H](n8cnc9c(N)ncnc98)O7)N(C)C)C[C@H](n7cc(C)c(=O)[nH]c7=O)O6)N(C)C)C[C@H](n6cnc7c(N)ncnc76)O5)N(C)C)C[C@H](n5cnc6c(=O)[nH]c(N)nc65)O4)N(C)C)C[C@H](n4ccc(N)nc4=O)O3)N(C)C)C[C@@H](COP(=O)(N(C)C)N3C[C@@H](COP(=O)(N(C)C)N4C[C@@H](COP(=O)(N(C)C)N5CCN(C(=O)CCNC(=O)CCCCCNC(=O)[C@H](CCCNC(=N)N)NC(=O)CCCCCNC(=O)[C@@H](N)CCCNC(=N)N)CC5)O[C@@H](n5ccc(N)nc5=O)C4)O[C@@H](n4cc(C)c(=O)[nH]c4=O)C3)O2)c(=O)[nH]c1=O (stereo partly drawn)
